Reference: paper PMC2375285, “Inhibition of all-TRANS-retinoic acid metabolism by R116010 induces antitumour activity” (British Journal of Cancer, 2002)

Key:
[1] = tested on: RA metabolism in intact T47D cells; assay: Microcolumn assay for RA metabolism in intact T47D cells; assay type: cell-based, human
Procedure: RA metabolism was quantitatively determined using the microcolumn assay as described previously ([Krekels et al, 1997]). […] Cells were then washed twice with culture medium, harvested and resuspended at 4×10^6 cells ml^−1. An aliquot of this cell suspension (450 μl) was incubated for 90 min in the presence of 0.1 μM [11, 12-^3H(N)]RA, after which 2 ml acetonitrile was added. After centrifugation for 10 min at 780 g, the resulting deproteinized supernatant was acidified with 2.5 ml of 40 mM acetic acid and applied to a 3 ml C18 Bond Elut LRC column (Varian, Harbor City, CA, USA; pretreated with 4 ml distilled water) under a vacuum of 127 mmHg using VAC ELUT SPS-24 and the effluent was collected. The column was eluted with 1 ml 40% acetonitrile and the effluent was collected in the same vial. Radioactivity in the collected effluent, containing the polar metabolites, was determined in a Packard Tri-carb 4530 liquid scintillation analyzer. Optiphase ‘Hi Safe II’ (Wallac, Milton Keynes, UK) was used as a scintillator. Data are presented as mean±s.d. of three or four independent experiments. The IC50-values were calculated by non-linear regression analysis using SigmaPlot 4.01 software.

[2] = tested on: RA metabolism in T47D cells; assay: Reverse-phase HPLC analysis of radiolabelled RA metabolites in T47D cells; assay type: cell-based, human; conditions: 1 μM R116010; T47D cells pretreated with 1 μM RA
Procedure: The T47D cell suspension was prepared as described above and 450 μl was incubated with 0.1 μM [11, 12-^3H(N)]RA for 90 min. After centrifugation for 10 min at 780 g, the supernatant was analyzed for the presence of RA metabolites. Reverse-phase HPLC analysis was carried out as described previously ([Van heusden et al, 1998]).

[3] = target: T1, CYP26A1 (Homo sapiens, UniProt O43174); assay: RA 4-hydroxylase in T47D human breast cancer microsomes; assay type: biochemical
T1 construct: microsomes of T47D human breast cancer cells that were pretreated for 16 h with 1 μM RA to induce RA metabolism; endogenous in cells; host or cells: T47D human breast cancer cells, pretreated with 1 μM RA for 16 h; microsomal fraction
T1 sequence (O43174 1-497): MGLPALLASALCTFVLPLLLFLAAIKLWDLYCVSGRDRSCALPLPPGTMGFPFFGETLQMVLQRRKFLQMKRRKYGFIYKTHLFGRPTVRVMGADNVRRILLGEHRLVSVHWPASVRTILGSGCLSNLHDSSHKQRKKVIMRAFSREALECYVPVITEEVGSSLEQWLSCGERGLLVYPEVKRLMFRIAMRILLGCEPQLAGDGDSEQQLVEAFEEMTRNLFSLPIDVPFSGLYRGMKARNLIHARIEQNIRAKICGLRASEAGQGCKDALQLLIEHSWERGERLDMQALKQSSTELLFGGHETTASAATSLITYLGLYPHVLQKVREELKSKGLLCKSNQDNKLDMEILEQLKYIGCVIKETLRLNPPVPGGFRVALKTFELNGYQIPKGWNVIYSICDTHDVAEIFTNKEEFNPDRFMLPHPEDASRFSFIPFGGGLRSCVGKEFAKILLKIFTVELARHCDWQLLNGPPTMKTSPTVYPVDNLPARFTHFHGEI
Procedure: Metabolism of RA by CYP26A1 was measured in microsomes of T47D human breast cancer cells that were pretreated for 16 h with 1 μM RA to induce RA metabolism. Microsomes were prepared exactly as described by [Han and Choi (1996)], and RA metabolism was measured as described by [Van Wauwe et al (1994)]. The conversion of androstenedione to estrone by aromatase (CYP19) in human placental microsomes, the conversion of 17-hydroxy-20-dihydroprogesterone to testosterone by 17,20-lyase (CYP17) in rat testicular S10 fractions, and the 2α-, 7α-, 6β-, and 16β-hydroxylation of testosterone (CYP2C11, CYP2A1, CYP3A, CYP2B1/2) in rat liver microsomes were carried out as described ([Vanden Bossche et al, 1990]).

[4] = target: T2, CYP2C11 (Rattus norvegicus, UniProt P08683); assay: Testosterone 2α-hydroxylase in rat liver microsomes; assay type: biochemical
T2 construct: hydroxylation of testosterone (CYP2C11, CYP2A1, CYP3A, CYP2B1/2) in rat liver microsomes; from tissue; host or cells: rat liver, microsomes
T2 sequence (P08683 1-500): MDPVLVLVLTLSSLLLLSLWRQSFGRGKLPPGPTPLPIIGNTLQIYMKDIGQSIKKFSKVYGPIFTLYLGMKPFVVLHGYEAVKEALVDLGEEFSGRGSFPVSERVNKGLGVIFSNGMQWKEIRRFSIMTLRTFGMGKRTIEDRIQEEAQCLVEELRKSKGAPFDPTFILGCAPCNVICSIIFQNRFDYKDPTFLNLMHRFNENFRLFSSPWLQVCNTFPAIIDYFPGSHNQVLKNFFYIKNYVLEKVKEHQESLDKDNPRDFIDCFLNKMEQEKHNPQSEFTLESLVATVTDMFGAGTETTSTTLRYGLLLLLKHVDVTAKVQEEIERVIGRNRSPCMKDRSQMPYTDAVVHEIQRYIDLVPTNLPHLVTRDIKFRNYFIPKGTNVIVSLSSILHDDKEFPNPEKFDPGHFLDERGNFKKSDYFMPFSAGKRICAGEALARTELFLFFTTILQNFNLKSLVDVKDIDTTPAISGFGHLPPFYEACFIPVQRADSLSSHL
Procedure: The conversion of androstenedione to estrone by aromatase (CYP19) in human placental microsomes, the conversion of 17-hydroxy-20-dihydroprogesterone to testosterone by 17,20-lyase (CYP17) in rat testicular S10 fractions, and the 2α-, 7α-, 6β-, and 16β-hydroxylation of testosterone (CYP2C11, CYP2A1, CYP3A, CYP2B1/2) in rat liver microsomes were carried out as described ([Vanden Bossche et al, 1990]).

`C[C@@H]([C@H](c1ccc(Nc2nc3ccccc3s2)cc1)n1ccnc1)N(C)C` [R116010, [S-(R*,R*)]-N-[4-[2-(dimethylamino)-1-(1H-imidazole-1-yl)propyl]-phenyl]-2-benzothiazolamine] was tested, and the IC50 ([1]; Homo sapiens, intact T47D cells pretreated 16 h with 1 μM RA, 0.1 μM [3H]RA, 90 min, read-out: IC50 inhibition of formation of polar [3H]RA metabolites (RA metabolism)) was 8.7 nM, the “fold more potent than liarozole-fumarate as inhibitor of RA metabolism” value ([1]; intact T47D cells) was “over 100 fold” and the “inhibition of RA metabolism (HPLC)” value [2] was “completely inhibited”. The IC50 [3] was 4 nM, the IC50 ([4]; Rat liver microsomes) was > 10000 nM and the inhibition at 10 μM ([4]; probe testosterone (2α-hydroxylation), 10 μM R116010, rat liver microsomes, read-out: percentage of inhibition, Testosterone 2α-hydroxylase (CYP2C11)) was 28%.
